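Following 48 hours of exposure in 96-well plates, responses at five concentrations were used to interpolate endpoints linearly. TGI denotes the concentration required for complete inhibition of growth.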
What was measured:
Experiment in all cases: NCI-60 cell line screen, 48 h
NCI/ADR-RES ovarian = test system: NCI/ADR-RES ovarian
SF-268 CNS = test system: SF-268 CNS
OVCAR-4 ovarian = test system: OVCAR-4 ovarian
CAKI-1 renal = test system: CAKI-1 renal
TK-10 renal = test system: TK-10 renal
SN12C renal = test system: SN12C renal
OVCAR-5 ovarian = test system: OVCAR-5 ovarian
SNB-19 CNS = test system: SNB-19 CNS
T-47D breast = test system: T-47D breast
NCI-H522 lung = test system: NCI-H522 lung
NCI-H226 lung = test system: NCI-H226 lung
MOLT-4 leukemia = test system: MOLT-4 leukemia
UACC-257 melanoma = test system: UACC-257 melanoma
MDA-MB-231 breast = test system: MDA-MB-231 breast
K-562 leukemia = test system: K-562 leukemia
BT-549 breast = test system: BT-549 breast
HCC-2998 colon = test system: HCC-2998 colon
CCRF-CEM leukemia = test system: CCRF-CEM leukemia
LOX IMVI melanoma = test system: LOX IMVI melanoma
DU-145 prostate = test system: DU-145 prostate
IGROV1 ovarian = test system: IGROV1 ovarian
U251 CNS = test system: U251 CNS
SF-539 CNS = test system: SF-539 CNS
786-0 renal = test system: 786-0 renal
SK-MEL-28 melanoma = test system: SK-MEL-28 melanoma
HOP-62 NSCLC = test system: HOP-62 NSCLC
RPMI-8226 leukemia = test system: RPMI-8226 leukemia
MDA-N = test system: MDA-N
HCT-15 colon = test system: HCT-15 colon
HT29 colon = test system: HT29 colon
RXF 393 renal = test system: RXF 393 renal
OVCAR-8 ovarian = test system: OVCAR-8 ovarian
MDA-MB-435 = test system: MDA-MB-435
EKVX NSCLC = test system: EKVX NSCLC
OVCAR-3 ovarian = test system: OVCAR-3 ovarian
SK-OV-3 ovarian = test system: SK-OV-3 ovarian
KM12 colon = test system: KM12 colon
SF-295 CNS = test system: SF-295 CNS
HS 578T breast = test system: HS 578T breast
SK-MEL-2 melanoma = test system: SK-MEL-2 melanoma
SR leukemia = test system: SR leukemia
UO-31 renal = test system: UO-31 renal
M14 melanoma = test system: M14 melanoma
NCI-H23 lung = test system: NCI-H23 lung
HOP-92 NSCLC = test system: HOP-92 NSCLC
COLO 205 colon = test system: COLO 205 colon
SW-620 colon = test system: SW-620 colon
PC-3 prostate = test system: PC-3 prostate
MCF7 breast = test system: MCF7 breast
HCT-116 colon = test system: HCT-116 colon
ACHN renal = test system: ACHN renal
HL-60(TB) leukemia = test system: HL-60(TB) leukemia
UACC-62 melanoma = test system: UACC-62 melanoma
SK-MEL-5 melanoma = test system: SK-MEL-5 melanoma
A549 NSCLC = test system: A549 NSCLC
NCI-H460 lung = test system: NCI-H460 lung
SNB-75 CNS = test system: SNB-75 CNS
MALME-3M melanoma = test system: MALME-3M melanoma

With `COc1ccccc1/C=C1\Sc2scc(-c3ccc(O)c(O)c3)[n+]2C1=O` the TGI (NCI/ADR-RES ovarian) was greater than 100 µM, the TGI (SF-268 CNS) was greater than 100 µM and the TGI (OVCAR-4 ovarian) was 81.3 µM. For the same compound, the TGI (CAKI-1 renal) was 29 µM, the TGI (TK-10 renal) was greater than 100 µM and the TGI (SN12C renal) was 67.5 µM. It also gave a TGI (OVCAR-5 ovarian) of 85.7 µM, a TGI (SNB-19 CNS) greater than 100 µM and a TGI (T-47D breast) of 42.5 µM. It also gave a TGI (NCI-H522 lung) of 24.8 µM, a TGI (NCI-H226 lung) greater than 100 µM and a TGI (MOLT-4 leukemia) of 38.9 µM. For the same compound, the TGI (UACC-257 melanoma) was 70.5 µM, the TGI (MDA-MB-231 breast) was 45 µM and the TGI (K-562 leukemia) was 42.1 µM. It also gave a TGI (BT-549 breast) of 32.6 µM, a TGI (HCC-2998 colon) of 31.6 µM and a TGI (CCRF-CEM leukemia) of 8.64 µM. It also gave a TGI (LOX IMVI melanoma) of 33.5 µM, a TGI (DU-145 prostate) of 57.4 µM and a TGI (IGROV1 ovarian) of 34.2 µM. It also gave a TGI (U251 CNS) greater than 100 µM, a TGI (SF-539 CNS) of 55.8 µM and a TGI (786-0 renal) of 29.2 µM. It also gave a TGI (SK-MEL-28 melanoma) of 33.1 µM, a TGI (HOP-62 NSCLC) greater than 100 µM and a TGI (RPMI-8226 leukemia) of 45.2 µM. For the same compound, the TGI (MDA-N) was 67.1 µM, the TGI (HCT-15 colon) was 30.6 µM and the TGI (HT29 colon) was 41.4 µM. The TGI (RXF 393 renal) was 56.9 µM, the TGI (OVCAR-8 ovarian) was greater than 100 µM and the TGI (MDA-MB-435) was 86.2 µM. For the same compound, the TGI (EKVX NSCLC) was greater than 100 µM, the TGI (OVCAR-3 ovarian) was 36.7 µM and the TGI (SK-OV-3 ovarian) was 97 µM. It also gave a TGI (KM12 colon) greater than 100 µM, a TGI (SF-295 CNS) greater than 100 µM and a TGI (HS 578T breast) greater than 100 µM. It also gave a TGI (SK-MEL-2 melanoma) of 64.1 µM, a TGI (SR leukemia) of 60.3 µM and a TGI (UO-31 renal) of 43.2 µM. It also gave a TGI (M14 melanoma) of 30.6 µM, a TGI (NCI-H23 lung) of 73.5 µM and a TGI (HOP-92 NSCLC) of 38.4 µM. For the same compound, the TGI (COLO 205 colon) was 37.2 µM, the TGI (SW-620 colon) was 31.6 µM and the TGI (PC-3 prostate) was greater than 100 µM. For the same compound, the TGI (MCF7 breast) was 91.5 µM, the TGI (HCT-116 colon) was 31.3 µM and the TGI (ACHN renal) was 31 µM. For the same compound, the TGI (HL-60(TB) leukemia) was 7.11 µM, the TGI (UACC-62 melanoma) was 32.5 µM and the TGI (SK-MEL-5 melanoma) was 44.1 µM. For the same compound, the TGI (A549 NSCLC) was greater than 100 µM and the TGI (NCI-H460 lung) was 38.3 µM.
With `Cc1cc2ncn(C3CCCO3)c2cc1C` (stereo not given) the TGI (SNB-75 CNS) was greater than 100 µM, the TGI (NCI/ADR-RES ovarian) was greater than 100 µM and the TGI (SF-268 CNS) was greater than 100 µM. For the same compound, the TGI (OVCAR-4 ovarian) was greater than 100 µM, the TGI (CAKI-1 renal) was greater than 100 µM and the TGI (TK-10 renal) was greater than 100 µM. It also gave a TGI (SN12C renal) greater than 100 µM, a TGI (OVCAR-5 ovarian) greater than 100 µM and a TGI (SNB-19 CNS) greater than 100 µM. The TGI (T-47D breast) was greater than 100 µM, the TGI (NCI-H522 lung) was greater than 100 µM and the TGI (NCI-H226 lung) was greater than 100 µM. The TGI (MOLT-4 leukemia) was greater than 100 µM, the TGI (UACC-257 melanoma) was greater than 100 µM and the TGI (MDA-MB-231 breast) was greater than 100 µM. The TGI (K-562 leukemia) was greater than 100 µM, the TGI (BT-549 breast) was greater than 100 µM and the TGI (HCC-2998 colon) was greater than 100 µM. The TGI (CCRF-CEM leukemia) was greater than 100 µM, the TGI (LOX IMVI melanoma) was greater than 100 µM and the TGI (DU-145 prostate) was greater than 100 µM. For the same compound, the TGI (IGROV1 ovarian) was greater than 100 µM, the TGI (U251 CNS) was greater than 100 µM and the TGI (SF-539 CNS) was greater than 100 µM. For the same compound, the TGI (786-0 renal) was greater than 100 µM, the TGI (SK-MEL-28 melanoma) was greater than 100 µM and the TGI (HOP-62 NSCLC) was greater than 100 µM. The TGI (RPMI-8226 leukemia) was greater than 100 µM, the TGI (MDA-N) was greater than 100 µM and the TGI (HCT-15 colon) was greater than 100 µM. For the same compound, the TGI (HT29 colon) was greater than 100 µM, the TGI (RXF 393 renal) was greater than 100 µM and the TGI (OVCAR-8 ovarian) was greater than 100 µM. The TGI (MDA-MB-435) was greater than 100 µM, the TGI (EKVX NSCLC) was greater than 100 µM and the TGI (OVCAR-3 ovarian) was greater than 100 µM. It also gave a TGI (MALME-3M melanoma) greater than 100 µM, a TGI (SK-OV-3 ovarian) greater than 100 µM and a TGI (KM12 colon) greater than 100 µM. For the same compound, the TGI (SF-295 CNS) was greater than 100 µM, the TGI (HS 578T breast) was greater than 100 µM and the TGI (SK-MEL-2 melanoma) was greater than 100 µM. The TGI (SR leukemia) was greater than 100 µM, the TGI (UO-31 renal) was greater than 100 µM and the TGI (M14 melanoma) was greater than 100 µM. It also gave a TGI (NCI-H23 lung) greater than 100 µM, a TGI (HOP-92 NSCLC) greater than 100 µM and a TGI (COLO 205 colon) greater than 100 µM. It also gave a TGI (SW-620 colon) greater than 100 µM, a TGI (PC-3 prostate) greater than 100 µM and a TGI (MCF7 breast) greater than 100 µM. It also gave a TGI (HCT-116 colon) greater than 100 µM, a TGI (ACHN renal) greater than 100 µM and a TGI (HL-60(TB) leukemia) greater than 100 µM. For the same compound, the TGI (UACC-62 melanoma) was greater than 100 µM, the TGI (SK-MEL-5 melanoma) was greater than 100 µM and the TGI (A549 NSCLC) was greater than 100 µM.
For `COc1cc(C2SC(N)=Nc3c2c(C)nn3C(=O)c2ccc(Cl)cc2)cc(OC)c1OC` (stereo not given), the TGI (SNB-75 CNS) was greater than 10 µM, the TGI (NCI/ADR-RES ovarian) was greater than 10 µM and the TGI (SF-268 CNS) was greater than 10 µM. The TGI (OVCAR-4 ovarian) was greater than 10 µM, the TGI (CAKI-1 renal) was greater than 10 µM and the TGI (TK-10 renal) was greater than 10 µM. It also gave a TGI (SN12C renal) greater than 10 µM, a TGI (OVCAR-5 ovarian) greater than 10 µM and a TGI (SNB-19 CNS) greater than 10 µM. The TGI (T-47D breast) was greater than 10 µM, the TGI (NCI-H522 lung) was greater than 10 µM and the TGI (NCI-H226 lung) was greater than 10 µM. For the same compound, the TGI (MOLT-4 leukemia) was greater than 10 µM, the TGI (UACC-257 melanoma) was greater than 10 µM and the TGI (MDA-MB-231 breast) was greater than 10 µM. The TGI (K-562 leukemia) was greater than 10 µM, the TGI (BT-549 breast) was greater than 10 µM and the TGI (HCC-2998 colon) was greater than 10 µM. The TGI (CCRF-CEM leukemia) was greater than 10 µM, the TGI (LOX IMVI melanoma) was greater than 10 µM and the TGI (DU-145 prostate) was greater than 10 µM. The TGI (IGROV1 ovarian) was greater than 10 µM, the TGI (U251 CNS) was greater than 10 µM and the TGI (SF-539 CNS) was greater than 10 µM. For the same compound, the TGI (786-0 renal) was greater than 10 µM, the TGI (SK-MEL-28 melanoma) was greater than 10 µM and the TGI (HOP-62 NSCLC) was greater than 10 µM. It also gave a TGI (RPMI-8226 leukemia) greater than 10 µM, a TGI (MDA-N) greater than 10 µM and a TGI (HCT-15 colon) greater than 10 µM. It also gave a TGI (HT29 colon) greater than 10 µM, a TGI (RXF 393 renal) greater than 10 µM and a TGI (OVCAR-8 ovarian) greater than 10 µM. For the same compound, the TGI (MDA-MB-435) was greater than 10 µM, the TGI (EKVX NSCLC) was greater than 10 µM and the TGI (OVCAR-3 ovarian) was greater than 10 µM. It also gave a TGI (MALME-3M melanoma) greater than 10 µM, a TGI (SK-OV-3 ovarian) greater than 10 µM and a TGI (KM12 colon) greater than 10 µM. For the same compound, the TGI (SF-295 CNS) was greater than 10 µM, the TGI (HS 578T breast) was greater than 10 µM and the TGI (SK-MEL-2 melanoma) was greater than 10 µM. The TGI (SR leukemia) was greater than 10 µM, the TGI (M14 melanoma) was greater than 10 µM and the TGI (NCI-H23 lung) was greater than 10 µM. The TGI (HOP-92 NSCLC) was greater than 10 µM, the TGI (COLO 205 colon) was greater than 10 µM and the TGI (SW-620 colon) was greater than 10 µM. For the same compound, the TGI (PC-3 prostate) was greater than 10 µM, the TGI (MCF7 breast) was greater than 10 µM and the TGI (HCT-116 colon) was greater than 10 µM. For the same compound, the TGI (ACHN renal) was greater than 10 µM, the TGI (HL-60(TB) leukemia) was greater than 10 µM and the TGI (UACC-62 melanoma) was greater than 10 µM. For the same compound, the TGI (SK-MEL-5 melanoma) was greater than 10 µM, the TGI (A549 NSCLC) was greater than 10 µM and the TGI (NCI-H460 lung) was greater than 10 µM.

From PubChem BioAssay (NCI)
